Measurements reported in US20100016355A1, “ALPHA-2B ADRENERGIC RECEPTOR AGONIST AND SEROTONIN-NOREPINEPHRINE REUPTAKE INHIBITOR COMPOSITIONS FOR TREATING CHRONIC PAIN” (priority 2006, published 2010).

Test system: Chung rat model of chronic pain (allodynia)
Assay: Chung rat model of chronic pain
Format: in vivo
Conditions: rats
Procedure: Amitriptyline was administered intraperitoneally to rats at a minimally effective dose; that is, the compound was administered at a dose that, when administered alone, is the minimum dose required to relieve pain (this dose was calculated by finding, first, the dose that produced drug's maximum effect—that is, the dose that fully alleviated pain—and dividing that dose by […]; the result is a dose that is slightly less than 50% of the dose that is required to produce the drug's maximum effect) The rats then immediately received one of two alpha-2B receptor agonists, compound No. 95 and compound no. No. 27, or received no additional compound, at all. Compound No. 95 and Compound No. 27 were administered intraperitoneally at ineffective doses; that is, these compounds were administered at doses that, when administered alone, are not effective in relieving pain. Pain reversal was then assessed using the Chung rat model of chronic pain. The model is described by Kim and Chung, Pain, […], at 355-363 (1992) and in U.S. Pat. No. 7,091,232, both of which are incorporated by reference herein.

CN(C)CCC=C1c2ccccc2CCc2ccccc21 [Amitriptyline, reference compound]
Pain Reversal (amitriptyline alone, 30 μg/kg intraperitoneally (minimally effective dose)): 43%
Pain Reversal (amitriptyline alone, 30 μg/kg intraperitoneally (minimally effective dose), listed as amitriptyline): 43%

C[C@@H](c1c[nH]c(=S)[nH]1)c1cccc2ncccc12 [Compound No. 95]
Pain Reversal (Compound No. 95 1 μg/kg i.p. (ineffective dose alone) given immediately after amitriptyline 30 μg/kg i.p.): 80%

C1=NC(CC2CCc3ccccc3C2)CN1 (stereo not shown) [Compound No. 27]
Pain Reversal (Compound No. 27 10 μg/kg i.p. (ineffective dose alone) given immediately after amitriptyline 30 μg/kg i.p.): 81%
